# According to PubChem BioAssay (NCI):
#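 Five compound concentrations were applied to cells in 96-well plates for 48 hours; endpoints were derived by simple linear interpolation of the resulting dose-response curve. Here, GI50 denotes the concentration required for 50% inhibition of growth. TGI denotes the concentration required for complete inhibition of growth.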
# Key:
# Assay in all cases: NCI tumour cell line growth inhibition, 48 h
# U251 CNS = test system: U251 CNS
# TK-10 renal = test system: TK-10 renal
# OVCAR-5 ovarian = test system: OVCAR-5 ovarian
# MALME-3M melanoma = test system: MALME-3M melanoma
# SN12C renal = test system: SN12C renal
# RPMI-8226 leukemia = test system: RPMI-8226 leukemia
# SK-MEL-2 melanoma = test system: SK-MEL-2 melanoma
# HS 578T breast = test system: HS 578T breast
Structure (SMILES),GI50 (U251 CNS) [µM],TGI (U251 CNS) [µM],GI50 (TK-10 renal) [µM],TGI (TK-10 renal) [µM],GI50 (OVCAR-5 ovarian) [µM],TGI (OVCAR-5 ovarian) [µM],GI50 (MALME-3M melanoma) [µM],TGI (MALME-3M melanoma) [µM],GI50 (SN12C renal) [µM],TGI (SN12C renal) [µM],GI50 (RPMI-8226 leukemia) [µM],TGI (RPMI-8226 leukemia) [µM],GI50 (SK-MEL-2 melanoma) [µM],TGI (SK-MEL-2 melanoma) [µM],GI50 (HS 578T breast) [µM],TGI (HS 578T breast) [µM]
CCOC(=O)[C@@H](N)CCC(=O)N[C@@H](CSCc1ccccc1)C(=O)N[C@@H](C(=O)OCC)c1ccccc1,16.6,31.3,16.6,32.7,> 100,> 100,19.7,36.2,18,34.9,17.8,45.1,16.7,32.7,16.6,47.3
COc1cc(/C=C/c2cc(/C=C/c3ccc(O)c(OC)c3)n(C(=O)Nc3ccc(F)c(Cl)c3)n2)ccc1O,–,–,0.58,3.56,1.82,6.87,1.05,2.48,–,–,0.365,1.73,–,–,0.346,2.74
Cc1cc(C(=O)Nc2ncc(Cc3cccc(C(F)(F)F)c3)s2)c2ccccc2n1,2.92,> 100,–,–,–,–,3.51,> 100,3.62,> 100,2.41,> 100,2.74,> 100,2.41,> 100
Clc1ccc(C2=Nn3c(COc4ccccc4Cl)nnc3SC2)c(Cl)c1,14.2,45.8,26.5,95.4,35.1,87.1,20.3,70.6,–,–,44.7,> 100,25.1,57.4,15,69
OC[C@H]1CCCC1O (stereo not given in full),–,> 100,–,> 100,–,> 100,–,> 100,–,> 100,–,> 100,–,> 100,–,–
N=C1C(c2nc3ccccc3s2)=C(O)CN1c1cc(C(F)(F)F)ccc1Cl,9.55,> 100,52.1,> 100,70.2,> 100,–,–,15.5,69.6,7.46,53,29.8,> 100,35.7,> 100
CC(C)(C)c1cc(C(C)(C)C)cc(S(=O)(=O)Nc2cc3ccccc3cc2C(=O)NCCN)c1,1.75,3.15,1.78,3.26,1.94,4.49,1.54,3.13,1.86,3.6,–,–,1.92,3.87,2.17,4.89
Cn1c2c(c3ccccc31)CC1c3c(c4ccccc4n3C)CC21 (stereo not given),–,> 100,–,> 100,–,> 100,–,> 100,–,> 100,–,> 100,–,–,–,> 100
CN1c2ccc(Cl)cc2C(=O)NC1c1ccc([N+](=O)[O-])s1 (stereo not given),–,32.5,–,48.5,–,54.1,–,–,–,30.9,–,26.7,–,30.8,–,34.2
C[C@@]12CC=C3c4nc(Nc5cccc(O)c5)sc4CC[C@]3(C)[C@H]1CC[C@]1(C)C(=O)CC[C@@H]21,2.24,16.9,2.18,6.44,2.58,7.26,–,–,–,–,0.669,4.52,2.86,9.99,2.43,> 100
CCCCC(O)(c1ccc(Cl)cc1)C(CN1CCOCC1)c1ccc(Cl)cc1 (stereo not given),13.6,27.5,16.6,31.2,10.7,23.7,15.6,33.8,12.6,28.5,10.4,36.2,–,–,16.8,46.5
COc1cc2nc3cc([N+](=O)[O-])ccc3c(NCCCNCCO)c2cc1OC,0.149,0.433,0.276,0.923,0.22,0.899,0.189,0.359,–,–,0.567,4.34,0.187,0.389,0.184,0.612
Cc1cccc(N2CCN(C(=S)c3ccc4c(c3)OCO4)CC2)c1,1.89,> 100,–,–,5.41,> 100,–,–,–,–,8.01,> 100,–,–,0.501,5.58
CN1C(=O)c2cccc3cc([N+](=O)[O-])cc(c23)C1=O,–,> 10,–,> 10,–,> 10,–,> 10,–,> 10,–,> 10,–,–,–,> 10
COc1ccccc1CNCCCN1C(=O)c2ccc3c4c(ccc(c24)C1=O)C(=O)N(CCCOCCCCOCCCN)C3=O,1.23,2.69,1.97,3.93,1.88,3.61,–,–,1.24,2.78,1.72,5.21,1.83,4.04,2.02,5.7
